Measurements reported in article PMC6979384, “Characterization of the plant homeodomain (PHD) reader family for their histone tail interactions” (Epigenetics & Chromatin, 2020).

Key:
Test in all cases: Histone peptide microarray
Type in all cases: binding, human
[1] = tested on: AIRE (PP); conditions: GST-tagged AIRE (PP); histone peptide array; arrays performed twice, n of 4
Procedure, shortened: (§1)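 Binding read as mean relative signal from 4 replicates; microarray held 293 synthetic histone peptides with single or combinatorial PTMs. Each GST-tagged PHD reader was applied at 0.5 μM using the optimized Petell protocol.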

[2] = tested on: DIDO1; conditions: GST-tagged DIDO1; histone peptide array; arrays performed twice, n of 4
Procedure, shortened: as §1

[3] = tested on: KDM5A (3); conditions: GST-tagged KDM5A (3); histone peptide array; arrays performed twice, n of 4
Procedure, shortened: as §1

[4] = tested on: TRIM66 (PB); conditions: GST-tagged TRIM66 (PB = PHD + Bromodomain); histone peptide array; arrays performed twice, n of 4
Procedure, shortened: as §1

[5] = tested on: KDM4C (TTP); conditions: GST-tagged KDM4C (TTP = Tandem Tudor domain + PHD); histone peptide array; arrays performed twice, n of 4
Procedure, shortened: as §1

[6] = tested on: BAZ2B; conditions: GST-tagged BAZ2B; histone peptide array; arrays performed twice, n of 4
Procedure, shortened: as §1

[7] = tested on: KDM5A (1); conditions: GST-tagged KDM5A (1); histone peptide array; arrays performed twice, n of 4
Procedure, shortened: as §1

[8] = tested on: CHD5 (PCC); conditions: GST-tagged CHD5 (PCC = PHD + Dual Chromodomain); histone peptide array; arrays performed twice, n of 4
Procedure, shortened: as §1

[9] = tested on: PHF21A; conditions: GST-tagged PHF21A; histone peptide array; arrays performed twice, n of 4
Procedure, shortened: as §1

[10] = tested on: PHRF1 (RP); conditions: GST-tagged PHRF1 (RP); histone peptide array; arrays performed twice, n of 4
Procedure, shortened: as §1

[11] = tested on: SP140L; conditions: GST-tagged SP140L; histone peptide array; arrays performed twice, n of 4
Procedure, shortened: as §1

[12] = tested on: ING2; conditions: GST-tagged ING2; histone peptide array; arrays performed twice, n of 4
Procedure, shortened: as §1

[13] = tested on: RAG2; conditions: GST-tagged RAG2; histone peptide array; arrays performed twice, n of 4
Procedure, shortened: as §1

[14] = tested on: KDM5B (1); conditions: GST-tagged KDM5B (1); histone peptide array; arrays performed twice, n of 4
Procedure, shortened: as §1

[15] = tested on: KDM5B (3); conditions: GST-tagged KDM5B (3); histone peptide array; arrays performed twice, n of 4
Procedure, shortened: as §1

[16] = tested on: ING4; conditions: GST-tagged ING4; histone peptide array; arrays performed twice, n of 4
Procedure, shortened: as §1

[17] = tested on: KDM7A; conditions: GST-tagged KDM7A; histone peptide array; arrays performed twice, n of 4
Procedure, shortened: as §1

[18] = tested on: PHF2; conditions: GST-tagged PHF2; histone peptide array; arrays performed twice, n of 4
Procedure, shortened: as §1

[19] = tested on: MORC3 (CW); conditions: GST-tagged MORC3 (CW = CW-type Zn-finger); histone peptide array; arrays performed twice, n of 4
Procedure, shortened: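 GST-PHD reader, 0.5 μM, probed on 293-peptide histone array (single/combinatorial PTMs); optimized array protocol; signal = mean ± SD, n = 4.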

[20] = tested on: CHD4 (PPCC); conditions: GST-tagged CHD4 (PPCC = Dual PHD + Dual Chromodomain); histone peptide array; arrays performed twice, n of 4
Procedure, shortened: as §1

[21] = tested on: ING5; conditions: GST-tagged ING5; histone peptide array; arrays performed twice, n of 4
Procedure, shortened: as §1

[22] = tested on: PHF23; conditions: GST-tagged PHF23; histone peptide array; arrays performed twice, n of 4
Procedure, shortened: as §1

[23] = tested on: MLL5; conditions: GST-tagged MLL5; histone peptide array; arrays performed twice, n of 4
Procedure, shortened: as §1

[24] = tested on: DPF2 (PPC2W2); conditions: GST-tagged DPF2 (PPC2W2 = Dual PHD + C2W2-type Zn-finger); histone peptide array; arrays performed twice, n of 4
Procedure, shortened: as §1

[25] = tested on: ING1; conditions: GST-tagged ING1; histone peptide array; arrays performed twice, n of 4
Procedure, shortened: as §1

[26] = tested on: PHF13; conditions: GST-tagged PHF13; histone peptide array; arrays performed twice, n of 4
Procedure, shortened: as §1

[27] = tested on: TAF3; conditions: GST-tagged TAF3; histone peptide array; arrays performed twice, n of 4
Procedure, shortened: as §1

[28] = tested on: PHF8; conditions: GST-tagged PHF8; histone peptide array; arrays performed twice, n of 4
Procedure, shortened: as §1

[29] = tested on: CHD5 (PPCC); conditions: GST-tagged CHD5 (PPCC = Dual PHD + Dual Chromodomain); histone peptide array; arrays performed twice, n of 4
Procedure, shortened: as §1

[30] = tested on: ING3; conditions: GST-tagged ING3; histone peptide array; arrays performed twice, n of 4
Procedure, shortened: as §1

[31] = tested on: BPTF (PB); conditions: GST-tagged BPTF (PB = PHD + Bromodomain); histone peptide array; arrays performed twice, n of 4
Procedure, shortened: as §1

Row | Substance | Array Heatmap signal, AIRE (PP) [1] | Array Heatmap signal, DIDO1 [2] | Array Heatmap signal, KDM5A (3) [3] | Array Heatmap signal, TRIM66 (PB) [4] | Array Heatmap signal, KDM4C (TTP) [5] | Array Heatmap signal, BAZ2B [6] | Array Heatmap signal, KDM5A (1) [7] | Array Heatmap signal, CHD5 (PCC) [8] | Array Heatmap signal, PHF21A [9] | Array Heatmap signal, PHRF1 (RP) [10] | Array Heatmap signal, SP140L [11] | Array Heatmap signal, ING2 [12] | Array Heatmap signal, RAG2 [13] | Array Heatmap signal, KDM5B (1) [14] | Array Heatmap signal, KDM5B (3) [15] | Array Heatmap signal, ING4 [16] | Array Heatmap signal, KDM7A [17] | Array Heatmap signal, PHF2 [18] | Array Heatmap signal, MORC3 (CW) [19] | Array Heatmap signal, CHD4 (PPCC) [20] | further results
1 | H4K5ac + K12ac: H4 1-23 | 0.3771 | 0.8034 | 0.5097 | 0.6577 | 0.4758 | 0.4409 | 0.4472 | 0.8553 | 0.4826 | 0.4375 | 0.3768 | 0.648 | 0.3116 | 0.6768 | 0.4813 | 0.4639 | 0.3306 | 0.5746 | 0.4134 | 0.585 | Array Heatmap signal, ING5 [21]: 0.3605; Array Heatmap signal, PHF23 [22]: 0.5561; Array Heatmap signal, MLL5 [23]: 0.6047; Array Heatmap signal, DPF2 (PPC2W2) [24]: 0.7316; Array Heatmap signal, ING1 [25]: 0.5734; Array Heatmap signal, PHF13 [26]: 0.6317; Array Heatmap signal, TAF3 [27]: 0.366; Array Heatmap signal, PHF8 [28]: 0.3854; Array Heatmap signal, CHD5 (PPCC) [29]: 0.532; Array Heatmap signal, ING3 [30]: 0.4957; Array Heatmap signal, BPTF (PB) [31]: 0.414
2 | H4K5ac: H4 1-23 [Peptide H4K5ac] | 0.3943 | 0.6701 | 0.423 | 0.6888 | 0.4448 | 0.4414 | 0.4372 | 0.7301 | 0.436 | 0.4272 | 0.3459 | 0.5879 | 0.2578 | 0.6329 | 0.4665 | 0.4388 | 0.3174 | 0.5353 | 0.3392 | 0.5634 | Array Heatmap signal, ING5 [21]: 0.3447; Array Heatmap signal, PHF23 [22]: 0.5421; Array Heatmap signal, MLL5 [23]: 0.5676; Array Heatmap signal, DPF2 (PPC2W2) [24]: 0.6533; Array Heatmap signal, ING1 [25]: 0.5387; Array Heatmap signal, PHF13 [26]: 0.6012; Array Heatmap signal, TAF3 [27]: 0.3079; Array Heatmap signal, PHF8 [28]: 0.3344; Array Heatmap signal, CHD5 (PPCC) [29]: 0.5269; Array Heatmap signal, ING3 [30]: 0.4744; Array Heatmap signal, BPTF (PB) [31]: 0.3451
